Test results: patent US11331314B2, “Amine substituted triazole derivatives and uses thereof” (Bayer Pharma Aktiengesellschaft, priority 2017, dated 2022)

How the values were obtained:
[1] = target: T1, human V2 receptor (Homo sapiens, UniProt P30518); assay: Cellular in vitro assay for determining vasopressin receptor activity, V2 receptor cell line (CRE-luciferase); assay type: cell-based; settings: CHO cell line transfected with the human V2 receptor; agonist [Arg8]-vasopressin at EC50 concentration; read-out: IC50 hV2
T1 construct: expressed in transfected cells; host or cells: CHO K1 (ATCC) expressing firefly luciferase under a CRE-responsive promoter
Experimental: (§1) B-1. Cellular In Vitro Assay for Determining Vasopressin Receptor Activity
(§2) The identification of agonists and antagonists of the V1a and V2 vasopressin receptors from humans, rats and dogs as well as the quantification of the activity of the compounds of the invention is carried out using recombinant cell lines. These cell lines originally derive from a hamster's ovary epithelial cell (Chinese Hamster Ovary, CHO K1, ATCC: American Type Culture Collection, Manassas, Va. 20108, USA). The test cell lines constitutively express the human, rat or dog V1a or V2 receptors. In case of the Gαq-coupled V1a receptors, cells are also stably transfected with a modified form of the calcium-sensitive photoproteins aequorin (human and rat V1a) or obelin (dog V1a), which, after reconstitution with the cofactor coelenterazine, emit light when there are increases in free calcium concentrations [Rizzuto R, Simpson A W, Brini M, Pozzan T, Nature 358, 325-327 (1992); Illarionov B A, Bondar V S, Illarionova V A, Vysotski E S, Gene 153 (2), 273-274 (1995)]. The resulting vasopressin receptor cells react to stimulation of the recombinantly expressed V1a receptors by intracellular release of calcium ions, which can be quantified by the resulting photoprotein luminescence. The Gs-coupled V2 receptors are stably transfected into cell lines expressing the gene for firefly luciferase under control of a CRE-responsible promoter. Activation of V2 receptors induces the activation of the CRE-responsive promoter via cAMP increase, thereby inducing the expression of firefly luciferase. The light emitted by photoproteins of V1a cell lines as well as the light emitted by firefly luciferase of V2 cell lines corresponds to the activation or inhibition of the respective vasopressin receptor. The bioluminescence of the cell lines is detected using a suitable luminometer [Milligan G, Marshall F, Rees S, Trends in Pharmacological Sciences 17, 235-237 (1996)].
Vasopressin V2 Receptor Cell Lines:
On the day before the assay, the cells are plated out in culture medium (DMEM/F12, 2% FCS, 2 mM glutamine, 10 mM HEPES) in 384-well microtiter plates and kept in a cell incubator (96% humidity, 5% v/v CO2, 37° C.). On the day of the assay, test compounds in various concentrations and the agonist [Arg^8]-vasopressin at EC50 concentration are added together to the wells, and plates are incubated for 3 hours in a cell incubator. Upon addition of the cell lysis reagent Triton™ and the substrate luciferin, luminescence of firefly luciferase is measured in a luminometer.
(§3) Table 1A below lists individual IC50 values for the compounds of the invention (including racemic mixtures as well as separated enantiomers) that were obtained from cell lines transfected with the human V1a or V2 receptor: […]

[2] = target: human V1a receptor (Homo sapiens, UniProt P37288); assay: Cellular in vitro assay for determining vasopressin receptor activity, V1a receptor cell line (photoprotein luminescence); assay type: cell-based; settings: for IC50: CHO cell line transfected with the human V1a receptor, agonist [Arg8]-vasopressin at EC50 concentration, read-out: IC50 hV1a; for ratio IC50 hV2/hV1a: selectivity ratio of the cellular IC50 values
Experimental: as §1, §2
Vasopressin V1a Receptor Cell Lines:
On the day before the assay, the cells are plated out in culture medium (DMEM/F12, 2% FCS, 2 mM glutamine, 10 mM HEPES, 5 μg/ml coelenterazine) in 384-well microtiter plates and kept in a cell incubator (96% humidity, 5% v/v CO2, 37° C.). On the day of the assay, test compounds in various concentrations are placed for 10 minutes in the wells of the microtiter plate before the agonist [Arg^8]-vasopressin at EC50 concentration is added. The resulting light signal is measured immediately in a luminometer.
as §3

T1 sequence (P30518 whole entry): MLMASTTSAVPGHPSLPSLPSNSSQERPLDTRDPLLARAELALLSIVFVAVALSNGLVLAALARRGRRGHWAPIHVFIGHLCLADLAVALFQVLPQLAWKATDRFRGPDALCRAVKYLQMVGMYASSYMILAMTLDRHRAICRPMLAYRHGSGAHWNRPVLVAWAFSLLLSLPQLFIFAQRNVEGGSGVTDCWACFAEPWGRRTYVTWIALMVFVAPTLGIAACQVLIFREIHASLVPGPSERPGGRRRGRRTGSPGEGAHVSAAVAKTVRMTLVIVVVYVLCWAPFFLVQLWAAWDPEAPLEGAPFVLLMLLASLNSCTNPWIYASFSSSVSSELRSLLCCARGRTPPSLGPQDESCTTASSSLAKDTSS
human V1a receptor, sequence (P37288 whole entry): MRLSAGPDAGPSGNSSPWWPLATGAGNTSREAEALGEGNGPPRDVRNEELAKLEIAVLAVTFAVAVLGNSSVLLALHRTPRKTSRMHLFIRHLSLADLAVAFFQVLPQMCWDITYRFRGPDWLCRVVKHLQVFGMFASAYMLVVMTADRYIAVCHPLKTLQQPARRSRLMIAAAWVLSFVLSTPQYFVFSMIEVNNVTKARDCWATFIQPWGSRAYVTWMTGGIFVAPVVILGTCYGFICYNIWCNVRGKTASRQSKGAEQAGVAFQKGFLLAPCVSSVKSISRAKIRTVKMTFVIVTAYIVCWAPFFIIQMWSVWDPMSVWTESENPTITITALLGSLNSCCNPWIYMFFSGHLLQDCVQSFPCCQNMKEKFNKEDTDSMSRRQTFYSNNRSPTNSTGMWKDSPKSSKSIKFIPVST

Compound	IC50 [1] [nM]	IC50 [2] [nM]	ratio IC50 hV2/hV1a [2]
O=C1CCC(Nc2nc(Cn3nc(-c4ccc(Cl)cc4)n(C[C@H](O)C(F)(F)F)c3=O)nn2CCC(F)(F)F)CN1 (mixture of isomers) [Example 99, 5-{[3-({3-(4-Chlorophenyl)-5-oxo-4-[(2S)-3,3,3-trifluoro-2-hydroxypropyl]-4,5-dihydro-1H-1,2,4-triazol-1-yl}methyl)-1-(3,3,3-trifluoropropyl)-1H-1,2,4-triazol-5-yl]amino}piperidin-2-one]	350	10.2	34.5
CC(C)(CNc1nc(Cn2nc(-c3ccc(Cl)cc3)n(C[C@H](O)C(F)(F)F)c2=O)nn1CCC(F)(F)F)NS(C)(=O)=O [Example 102, N-(1-{[3-({3-(4-Chlorophenyl)-5-oxo-4-[(2S)-3,3,3-trifluoro-2-hydroxypropyl]-4,5-dihydro-1H-1,2,4-triazol-1-yl}methyl)-1-(3,3,3-trifluoropropyl)-1H-1,2,4-triazol-5-yl]amino}-2-methylpropan-2-yl)methanesulfonamide]	123	3.9	31.5
CS(=O)(=O)C1CN(c2nc(Cn3nc(-c4ccc(Cl)cc4)n(C[C@H](O)C(F)(F)F)c3=O)nn2-c2ccccc2Cl)C1 [Example 2, 5-(4-Chlorophenyl)-2-({1-(2-chlorophenyl)-5-[3-(methylsulfonyl)azetidin-1-yl]-1H-1,2,4-triazol-3-yl}methyl)-4-[(2S)-3,3,3-trifluoro-2-hydroxypropyl]-2,4-dihydro-3H-1,2,4-triazol-3-one]	0.84	0.43	1.9
O=c1n(Cc2nc(NCC3CS(=O)(=O)C3)n(-c3ccccc3Cl)n2)nc(-c2ccc(Cl)cc2)n1C[C@H](O)C(F)(F)F [Example 73, 5-(4-Chlorophenyl)-2-{[1-(2-chlorophenyl)-5-{[(1,1-dioxidothietan-3-yl)methyl]amino}-1H-1,2,4-triazol-3-yl]methyl}-4-[(2S)-3,3,3-trifluoro-2-hydroxypropyl]-2,4-dihydro-3H-1,2,4-triazol-3-one]	9.5	1.13	8.4
NC(=O)[C@@H]1CCCN1c1nc(Cn2nc(-c3ccc(Cl)cc3)n(C[C@H](O)C(F)(F)F)c2=O)nn1-c1ccccc1Cl [Example 58, 1-[1-(2-Chlorophenyl)-3-({3-(4-chlorophenyl)-5-oxo-4-[(2S)-3,3,3-trifluoro-2-hydroxypropyl]-4,5-dihydro-1H-1,2,4-triazol-1-yl}methyl)-1H-1,2,4-triazol-5-yl]-L-prolinamide]	22	1.65	13.3
O=c1n(Cc2nc(N3CCC(F)(F)C3)n(-c3ccccc3Cl)n2)nc(-c2ccc(Cl)cc2)n1C[C@H](O)C(F)(F)F [Example 37, 5-(4-Chlorophenyl)-2-{[1-(2-chlorophenyl)-5-(3,3-difluoropyrrolidin-1-yl)-1H-1,2,4-triazol-3-yl]methyl}-4-[(2S)-3,3,3-trifluoro-2-hydroxypropyl]-2,4-dihydro-3H-1,2,4-triazol-3-one]	1.33	0.44	3.1
O=C1CCC(Nc2nc(Cn3nc(-c4ccc(Cl)cc4)n(C[C@H](O)C(F)(F)F)c3=O)nn2-c2ccccc2Cl)CN1 (single isomer, unassigned) [Example 62]	9.45	1.3	7.3
CC(C)(N)CNc1nc(Cn2nc(-c3ccc(Cl)cc3)n(C[C@H](O)C(F)(F)F)c2=O)nn1-c1ccccc1Cl [Example 32, 2-({5-[(2-Amino-2-methylpropyl)amino]-1-(2-chlorophenyl)-1H-1,2,4-triazol-3-yl}methyl)-5-(4-chlorophenyl)-4-[(2S)-3,3,3-trifluoro-2-hydroxypropyl]-2,4-dihydro-3H-1,2,4-triazol-3-one]	24.8	0.35	71.2
CS(=O)(=O)NCCNc1nc(Cn2nc(-c3ccc(Cl)cc3)n(C[C@H](O)C(F)(F)F)c2=O)nn1-c1ccccc1Cl [Example 24, N-(2-{[1-(2-Chlorophenyl)-3-({3-(4-chlorophenyl)-5-oxo-4-[(2S)-3,3,3-trifluoro-2-hydroxypropyl]-4,5-dihydro-1H-1,2,4-triazol-1-yl}methyl)-1H-1,2,4-triazol-5-yl]amino}ethyl)methanesulfonamide]	1.02	0.4	2.6
O=c1n(Cc2nc(NCC3(O)CCNCC3)n(-c3ccccc3Cl)n2)nc(-c2ccc(Cl)cc2)n1C[C@H](O)C(F)(F)F [Example 22, 5-(4-Chlorophenyl)-2-{[1-(2-chlorophenyl)-5-{[(4-hydroxypiperidin-4-yl)methyl]amino}-1H-1,2,4-triazol-3-yl]methyl}-4-[(2S)-3,3,3-trifluoro-2-hydroxypropyl]-2,4-dihydro-3H-1,2,4-triazol-3-one]	12	0.46	26.1
CC(C)(O)CNc1nc(Cn2nc(-c3ccc(Cl)cc3)n(C[C@H](O)C(F)(F)F)c2=O)nn1CCC(F)(F)F [Example 110, 5-(4-Chlorophenyl)-2-({5-[(2-hydroxy-2-methylpropyl)amino]-1-(3,3,3-trifluoropropyl)-1H-1,2,4-triazol-3-yl}methyl)-4-[(2S)-3,3,3-trifluoro-2-hydroxypropyl]-2,4-dihydro-3H-1,2,4-triazol-3-one]	170	1.4	121.4
NC(=O)[C@@H]1CC(F)(F)CN1c1nc(Cn2nc(-c3ccc(Cl)cc3)n(C[C@H](O)C(F)(F)F)c2=O)nn1-c1ccccc1Cl [Example 9, 1-[1-(2-Chlorophenyl)-3-({3-(4-chlorophenyl)-5-oxo-4-[(2S)-3,3,3-trifluoro-2-hydroxypropyl]-4,5-dihydro-1H-1,2,4-triazol-1-yl}methyl)-1H-1,2,4-triazol-5-yl]-4,4-difluoro-L-prolinamide]	16.7	0.89	18.8
O=c1n(Cc2nc(N3CCC(O)(C(F)(F)F)CC3)n(-c3ccccc3Cl)n2)nc(-c2ccc(Cl)cc2)n1C[C@H](O)C(F)(F)F [Example 28, 5-(4-Chlorophenyl)-2-({1-(2-chlorophenyl)-5-[4-hydroxy-4-(trifluoromethyl)piperidin-1-yl]-1H-1,2,4-triazol-3-yl}methyl)-4-[(2S)-3,3,3-trifluoro-2-hydroxypropyl]-2,4-dihydro-3H-1,2,4-triazol-3-one]	10	0.66	15.3
O=c1n(Cc2nc(N3CCCC3)n(-c3ccccc3Cl)n2)nc(-c2ccc(Cl)cc2)n1C[C@H](O)C(F)(F)F [Example 87, 5-(4-Chlorophenyl)-2-{[1-(2-chlorophenyl)-5-(pyrrolidin-1-yl)-1H-1,2,4-triazol-3-yl]methyl}-4-[(2S)-3,3,3-trifluoro-2-hydroxypropyl]-2,4-dihydro-3H-1,2,4-triazol-3-one]	26.8	2.41	11.1
O=c1n(Cc2nc(N3CCS(=O)(=O)CC3)n(-c3ccccc3F)n2)nc(-c2ccc(Cl)cc2)n1C[C@H](O)C(F)(F)F [Example 90, 5-(4-Chlorophenyl)-2-{[5-(1,1-dioxidothiomorpholin-4-yl)-1-(2-fluorophenyl)-1H-1,2,4-triazol-3-yl]methyl}-4-[(2S)-3,3,3-trifluoro-2-hydroxypropyl]-2,4-dihydro-3H-1,2,4-triazol-3-one]	248	8.8	28.1
CC(C)(C)CNc1nc(Cn2nc(-c3ccc(Cl)cc3)n(C[C@H](O)C(F)(F)F)c2=O)nn1-c1ccccc1Cl [Example 1, 5-(4-Chlorophenyl)-2-({1-(2-chlorophenyl)-5-[(2,2-dimethylpropyl)amino]-1H-1,2,4-triazol-3-yl}methyl)-4-[(2S)-3,3,3-trifluoro-2-hydroxypropyl]-2,4-dihydro-3H-1,2,4-triazol-3-one]	1.85	0.75	2.5
